Positions of bridges follow the written chain, without caps; N, C: chain ends. Non-standard residues stand in square brackets, D forms with d. Residues, ends and D or L forms follow the SMILES beside them.
Assay: Stability in mouse serum monitored by RP-HPLC
Type: in vitro ADME
Conditions: 37° C., 24 h
Procedure: RGD-Lys-(Arg^11)CCMSH was radiolabeled with ^99mTc via a glucoheptonate transchelation reaction using methods described previously (7). Briefly, 100 μl of 2 mg/ml SnCl2 in 0.2 M glucoheptonate aqueous solution and 200 μl of fresh ^99mTcO4^− solution (1-4 mCi) were added into a reaction vial and incubated at room temperature (25° C.) for […] to form ^99mTc-glucoheptonate. Then, 10 μl of 1 mg/ml RGD-Lys-(Arg^11)CCMSH aqueous solution was added into the reaction vial and the pH of the reaction mixture was adjusted to 8.5 with 0.1 M NaOH. The reaction mixture was incubated at 75° C. for 40 min. […] The stability of ^99mTc-RGD-Lys-(Arg^11)CCMSH was determined by incubation in mouse serum at 37° C. according to the published procedure (27) for various time periods, and monitored for degradation by RP-HPLC.
RGD-Arg-(Arg^11)CCMSH was radiolabeled with ^99mTc via a glucoheptonate transchelation reaction using methods described previously (17). […] The stability of ^99m Tc-RGD-Arg-(Arg^11)CCMSH was determined by incubation in mouse serum at 37° C. according to the published procedure (17) for various time periods, and monitored for degradation by RP-HPLC.

| SMILES | Stability in mouse serum |
| --- | --- |
| CC(C)[C@H](NC(=O)[C@@H]1CCCN1C(=O)[C@H](CCCNC(=N)N)NC(=O)[C@H](CS)NC(=O)[C@H](Cc1c[nH]c2ccccc12)NC(=O)[C@H](CCCNC(=N)N)NC(=O)[C@@H](Cc1ccccc1)NC(=O)[C@H](Cc1c[nH]cn1)NC(=O)[C@H](CCC(=O)O)NC(=O)[C@H](CS)NC(=O)[C@H](CS)NC(=O)[C@H](CCCNC(=N)N)NC(=O)[C@@H]1CC(=O)N[C@@H](CCCNC(=N)N)C(=O)NCC(=O)N[C@@H](CC(=O)O)C(=O)N[C@H](Cc2ccc(O)cc2)C(=O)N1)C(N)=O [^99mTc-RGD-Arg-(Arg^11)CCMSH, metal not drawn] (RGD[dY]DRCCEH[dF]RWCRPV-NH2; lactam N-5) | stable |
| CC(C)[C@H](NC(=O)[C@@H]1CCCN1C(=O)[C@H](CCCNC(=N)N)NC(=O)[C@H](CS)NC(=O)[C@H](Cc1c[nH]c2ccccc12)NC(=O)[C@H](CCCNC(=N)N)NC(=O)[C@@H](Cc1ccccc1)NC(=O)[C@H](Cc1c[nH]cn1)NC(=O)[C@H](CCC(=O)O)NC(=O)[C@H](CS)NC(=O)[C@H](CS)NC(=O)[C@H](CCCCN)NC(=O)[C@@H]1CC(=O)N[C@@H](CCCNC(=N)N)C(=O)NCC(=O)N[C@@H](CC(=O)O)C(=O)N[C@H](Cc2ccc(O)cc2)C(=O)N1)C(N)=O [^99mTc-RGD-Lys-(Arg^11)CCMSH, metal not drawn] (RGD[dY]DKCCEH[dF]RWCRPV-NH2; lactam N-5) | stable |

— patent US9005575B2, “Arg-Gly-Asp-conjugated alpha-melanocyte stimulating hormone hybrid peptide for use in diagnosing and treating melanoma, including metastatic melanoma and methods related to same” (STC.UNM, priority 2009, dated 2015)
